For orientation: EC50 means the concentration giving half of the maximal effect.

Nine compounds from US7439039B2, “Assays for novel serotonin transporter (SERT) blockers” (priority 2003, dated 2008) can be followed below.

SMILES strings stand for the structures. Structures can show the parent of a compound that is named as a salt.

One assay has as its target hSERT WT (Homo sapiens, UniProt P31645). Briefly: cell-based.
Settings: not given
It counts as cell-based.
As to `CNCCC(Oc1ccccc1OC)c1ccccc1` (stereo not drawn) [Nisoxetine], the midpoint of the response, the EC50, lay at 1.36 µM.

The compound `NCCc1c[nH]c2ccccc12` [Tryptamine] registered a concentration giving a half-maximal response (EC50) of 0.2 µM.

In turn, `NCCc1c[nH]c2c(O)c(O)c(O)cc12` [5,6,7 trihydroxytryptamine] gave an EC50 of 14.3 µM.

As for `OC1(c2ccc(Cl)cc2)c2ccccc2C2=NCCN21` (stereo not drawn) [Mazindol], the concentration for a half-maximal effect (EC50) worked out at 2.9 µM.

With `NCCc1c[nH]c2c(O)cccc12` [7-hydroxytryptamine], it took 1.4 µM to reach a half-maximal effect (EC50).

Staying with this assay, now noted: read-out: EC50(μM) WT.
Take `COC(=O)[C@H]1C(c2ccc(I)cc2)C[C@@H]2CC[C@H]1N2C` (stereo partly drawn) [RTI-55]: the concentration for a half-maximal effect (EC50) came to 0.0007 µM.

Turning to `CC(N)Cc1c[nH]c2ccc(O)cc12` (stereo not drawn) [Alpha-methylserotonin maleate], the EC50 is 2.2 µM.

As for `CNC(C)Cc1ccc2c(c1)OCO2` (stereo not drawn) [MDMA], the EC50 came out at 0.7 µM.

The target of another assay is hSERT Y95F (Homo sapiens, UniProt P31645, Y95F).
Test: not given
Settings: not given
Consider `NCCc1c[nH]c2ccc(O)cc12` [5HT, 5-hydroxytryptamine], for which the recognition result is reported as “appeared normal”.
